Test results taken from patent US20250270199A1, “THIAZOLE DERIVATIVES AND METHODS OF USING THE SAME” (Arkansas State University - Jonesboro, priority 2022, published 2025).
In brackets after ≈: the same amount, converted by molar mass. Several values for one entry are separate records, joined by “and”; a condition that tells them apart may be missing. Equal entries are not always repeated. Where two headings read alike, the source gives them in different places.

How the values were obtained:
[1] = system: S. aureus ATCC 25923 (Sa 23); assay: MIC, broth microdilution, Sa 23; format: cell-based; details: for MIC: Staphylococcus aureus, read-out: Minimum inhibitory concentration (MIC) Sa 23; for Minimum inhibitory concentration (MIC) Sa 23: Table 1, HT series
Procedure: (§1) The broth microdilution method was utilized to determine MIC values of novel thiazole derivatives against different clinically important Gram-positive bacteria according to the guidelines outlined by the Clinical and Laboratory Standards Institute (CLSI) as reported in our recent papers.^1-5 The starting concentration of compounds for MIC determination was 64 μg/mL serially diluted down the wells and the MIC values were recorded in duplicates in three independent experiments on different days.

[2] = system: S. aureus ATCC 33592 (Sa 92); assay: MIC, broth microdilution, Sa 92; format: cell-based; details: Staphylococcus aureus, ATCC33592, read-out: Minimum inhibitory concentration (MIC) Sa 92
Procedure: as §1

[3] = system: S. aureus subsp. aureus Rosenbach ATCC 25904 (SA Newman); assay: MIC, broth microdilution, SA Newman; format: cell-based; details: Staphylococcus aureus, read-out: Minimum inhibitory concentration (MIC) Sa Newman
Procedure: as §1

[4] = system: Sa UAMS-1 MRSA ATCC 49230 (Sa UAMS); assay: MIC, broth microdilution, Sa UAMS; format: cell-based, S. aureus; details: Staphylococcus aureus
Procedure: as §1

[5] = system: E. faecalis ATCC 29212 (Efs 12); assay: MIC, broth microdilution, Efs 12; format: cell-based; details: for MIC: Enterococcus faecalis, read-out: Minimum inhibitory concentration (MIC) Efs 12; for Minimum inhibitory concentration (MIC) Efs 12: Table 1, HT series
Procedure: as §1

[6] = system: S. aureus ATCC 33591 (Sa 91); assay: MIC, broth microdilution, Sa 91; format: cell-based; details: Staphylococcus aureus, ATCC33591, read-out: Minimum inhibitory concentration (MIC) Sa 91
Procedure: as §1

[7] = system: S. aureus ATCC BAA-2312 (Sa 12); assay: MIC, broth microdilution, Sa 12; format: cell-based; details: Staphylococcus aureus, ATCCBAA2312, read-out: Minimum inhibitory concentration (MIC) Sa 12
Procedure: as §1

[8] = system: S. aureus LAC MRSA (Sa LAC); assay: MIC, broth microdilution, Sa LAC; format: cell-based; details: Staphylococcus aureus, Table 1, HT series, read-out: Minimum inhibitory concentration (MIC) Sa LAC
Procedure: as §1

[9] = system: S. aureus ATCC 700699 (Sa 99); assay: MIC, broth microdilution, Sa 99; format: cell-based; details: for Minimum inhibitory concentration (MIC) Sa 99: Table 1, HT series; for MIC: Staphylococcus aureus, read-out: Minimum inhibitory concentration (MIC) Sa 99
Procedure: as §1

[10] = system: E. faecium ATCC 700221 (Efm 21); assay: MIC, broth microdilution, Efm 21; format: cell-based; details: Enterococcus faecium, ATCC700221, Table 2, HTM series; read-out: Minimum inhibitory concentration (MIC) Efm 21
Procedure: as §1

[11] = system: E. faecalis ATCC 51299 (Efs 99); assay: MIC, broth microdilution, Efs 99; format: cell-based; details: Enterococcus faecalis, ATCC51299; Table 2, HTM series; read-out: Minimum inhibitory concentration (MIC) Efs 99
Procedure: as §1

[12] = system: S. aureus subsp. aureus Rosenbach BAA-1717 (Sa USA 300); assay: MIC, broth microdilution, Sa USA 300; format: cell-based; details: Staphylococcus aureus; Table 2, HTM series; read-out: Minimum inhibitory concentration (MIC) Sa USA 300
Procedure: as §1

[13] = system: S. epidermidis ATCC 700296 (Se); assay: MIC, broth microdilution, Se; format: cell-based; details: Staphylococcus epidermidis, ATCC700296; Table 2, HTM series; read-out: Minimum inhibitory concentration (MIC) Se
Procedure: as §1

[14] = ATCC25923, Table 1, HT series, replicates from different days separated by comma
[15] = replicates from different days separated by comma
[16] = Table 1, HT series, read-out: Minimum inhibitory concentration (MIC) Sa UAMS
[17] = ATCC29212, Table 1, HT series, replicates from different days separated by comma
[18] = Table 2, HTM series, read-out: Minimum inhibitory concentration (MIC) Sa UAMS-1
[19] = ATCC700699, Table 2, HTM series
[20] = ATCC700699, Table 1, HT series, replicates from different days separated by comma

MIC [1, 14] | Minimum inhibitory concentration (MIC) Sa 23 [1, 15] | MIC ([2]; Table 1, HT series) | MIC ([3]; Table 1, HT series) | MIC [4, 16] | MIC [5, 17] | Minimum inhibitory concentration (MIC) Efs 12 [5, 15] | MIC ([6]; Table 1, HT series) | MIC ([7]; Table 1, HT series) | MIC [8] | Minimum inhibitory concentration (MIC) Sa 99 [9, 15] | MIC ([1]; ATCC25923, Table 2, HTM series) | MIC ([2]; Table 2, HTM series) | MIC ([3]; Table 2, HTM series) | MIC [4, 18] | MIC ([5]; ATCC29212, Table 2, HTM series) | MIC [10] | MIC [11] | MIC ([6]; Table 2, HTM series) | MIC [12] | SMILES | further results
4 µg/mL (≈ 13.9 µM) | 8 µg/mL (≈ 27.8 µM) | 16 µg/mL (≈ 55.7 µM) | 8 µg/mL (≈ 27.8 µM) | 16 µg/mL (≈ 55.7 µM) | 32 µg/mL (≈ 111 µM) | 32, 32, 32 μg/mL | 8 µg/mL (≈ 27.8 µM) | 16 µg/mL (≈ 55.7 µM) | 16 µg/mL (≈ 55.7 µM) | 16 μg/mL (2×) and 4 μg/mL | – | – | – | – | – | – | – | – | – | Oc1ccc(-c2nc(-c3ccc(F)cc3)cs2)cc1O [Compound 4, 4-(4-(4-fluorophenyl)thiazol-2-yl)benzene-1,2-diol] | –
– | – | – | – | – | – | – | – | – | – | – | 4 µg/mL (≈ 9.52 µM) | 4 µg/mL (≈ 9.52 µM) | 4 µg/mL (≈ 9.52 µM) | 4 µg/mL (≈ 9.52 µM) | 4 µg/mL (≈ 9.52 µM) | 4 µg/mL (≈ 9.52 µM) | 4 µg/mL (≈ 9.52 µM) | 4 µg/mL (≈ 9.52 µM) | 4 µg/mL (≈ 9.52 µM) | Oc1ccc(-c2csc(Nc3cc(C(F)(F)F)cc(C(F)(F)F)c3)n2)cc1O [Compound 58, 4-(2-((3,5-bis(trifluoromethyl)phenyl)amino)thiazol-4-yl)benzene-1,2-diol] | MIC ([7]; Table 2, HTM series): 4 µg/mL (≈ 9.52 µM); MIC [13]: 4 µg/mL (≈ 9.52 µM); MIC [9, 19]: 4 µg/mL (≈ 9.52 µM)
8 µg/mL (≈ 29.7 µM) | 16 µg/mL (≈ 59.4 µM) | 16 µg/mL (≈ 59.4 µM) | 32 µg/mL (≈ 119 µM) | 32 µg/mL (≈ 119 µM) | > 32 µg/mL | >32, >32, >32 μg/mL | 16 µg/mL (≈ 59.4 µM) | 32 µg/mL (≈ 119 µM) | 32 µg/mL (≈ 119 µM) | 16 µg/mL (≈ 59.4 µM) | – | – | – | – | – | – | – | – | – | Oc1ccc(-c2nc(-c3ccccc3)cs2)cc1O [Compound 2, 4-(4-phenylthiazol-2-yl)benzene-1,2-diol] | MIC [9, 20]: 32 µg/mL (≈ 119 µM)
– | – | – | – | – | – | – | – | – | – | – | 1 µg/mL (≈ 2.47 µM) | 1 µg/mL (≈ 2.47 µM) | 1 µg/mL (≈ 2.47 µM) | 2 µg/mL (≈ 4.95 µM) | 1 µg/mL (≈ 2.47 µM) | 1 µg/mL (≈ 2.47 µM) | 1 µg/mL (≈ 2.47 µM) | 1 µg/mL (≈ 2.47 µM) | 1 µg/mL (≈ 2.47 µM) | Oc1ccc(-c2csc(Nc3cc(C(F)(F)F)cc(C(F)(F)F)c3)n2)cc1 [Compound 59, 4-(2-((3,5-bis(trifluoromethyl)phenyl)amino)thiazol-4-yl)phenol] | MIC ([7]; Table 2, HTM series): 1 µg/mL (≈ 2.47 µM); MIC [13]: 1 µg/mL (≈ 2.47 µM); MIC [9, 19]: 1 µg/mL (≈ 2.47 µM)
2 µg/mL (≈ 6.26 µM) | 2, 2, 2 μg/mL | 8 µg/mL (≈ 25 µM) | 8 µg/mL (≈ 25 µM) | 8 µg/mL (≈ 25 µM) | 16 µg/mL (≈ 50.1 µM) | 16, 16, 16 μg/mL | 8 µg/mL (≈ 25 µM) | 8 µg/mL (≈ 25 µM) | 4 µg/mL (≈ 12.5 µM) | 2, 2, 2 μg/mL | – | – | – | – | – | – | – | – | – | Oc1ccc(-c2nc(-c3ccc4ccccc4c3)cs2)cc1O [Compound 14, 4-(4-(naphthalen-2-yl)thiazol-2-yl)benzene-1,2-diol] | MIC [9, 20]: 2 µg/mL (≈ 6.26 µM)
